# Tested on: 12 single or co-culture in vitro tissue models of primary cells
# Assay: Culture/co-culture cell model panel, extracellular biomarkers (DiscoveRx); on CCL2/MCP-1: reference of the scale not given here; on CD38: reference of the scale not given here; on CD40: reference of the scale not given here; on CD69: reference of the scale not given here; on CXCL8/IL-8: reference of the scale not given here; on CXCL9/MIG: reference of the scale not given here; on IL-1alpha: reference of the scale not given here; on PBMC Cytotoxicity: reference of the scale not given here; on SRB: reference of the scale not given here
# Assay type: cell-based, human
smiles,measurement,setting,value
Cc1n[nH]c2ncc(C(=O)N3CCC[C@H]3c3ccc(Cl)cc3)cc12 [CMPD4],CCL26/Eotaxin-3,"/TH2, 3.33E3 nM",-0.151
same,CD38,"/TH2, 3.33E3 nM",-0.023
same,CD40,"/TH2, 3.33E3 nM",-0.167
same,CD62E/E-Selectin,"/TH2, 3.33E3 nM",0.088
same,CD62P/P-selectin,"/TH2, 3.33E3 nM",-0.076
same,CD69,"/TH2, 3.33E3 nM",0.020
same,CD87/uPAR,"/TH2, 3.33E3 nM",-0.191
same,CD106/VCAM-1,"/TH2, 3.33E3 nM",0.009
same,CXCL8/IL-8,"/TH2, 3.33E3 nM",-0.082
same,CXCL9/MIG,"/TH2, 3.33E3 nM",-0.033
same,Collagen IV,"/TH2, 3.33E3 nM",0.00458
same,PBMC Cytotoxicity,"/TH2, 3.33E3 nM",-0.051
same,SRB,"/TH2, 3.33E3 nM",-0.131
same,sIL-17A,"/TH2, 3.33E3 nM",0.034
same,sIL-17F,"/TH2, 3.33E3 nM",0.022
same,CCL2/MCP-1,"/TH2, 3.70E2 nM",-0.111
same,CCL26/Eotaxin-3,"/TH2, 3.70E2 nM",-0.170
same,CD38,"/TH2, 3.70E2 nM",0.020
same,CD40,"/TH2, 3.70E2 nM",-0.169
same,CD62E/E-Selectin,"/TH2, 3.70E2 nM",0.039
same,CD62P/P-selectin,"/TH2, 3.70E2 nM",-0.043
same,CD69,"/TH2, 3.70E2 nM",0.055
same,CD87/uPAR,"/TH2, 3.70E2 nM",-0.203
same,CD106/VCAM-1,"/TH2, 3.70E2 nM",0.023
same,CXCL8/IL-8,"/TH2, 3.70E2 nM",-0.040
same,CXCL9/MIG,"/TH2, 3.70E2 nM",-0.019
same,Collagen IV,"/TH2, 3.70E2 nM",-0.00656
same,PBMC Cytotoxicity,"/TH2, 3.70E2 nM",0.007
same,SRB,"/TH2, 3.70E2 nM",-0.083
same,sIL-17A,"/TH2, 3.70E2 nM",0.040
same,sIL-17F,"/TH2, 3.70E2 nM",0.00074
same,CCL2/MCP-1,"/TH2, 4.12E1 nM",-0.080
same,CCL26/Eotaxin-3,"/TH2, 4.12E1 nM",-0.157
same,CD38,"/TH2, 4.12E1 nM",0.006
same,CD40,"/TH2, 4.12E1 nM",-0.170
same,CD62E/E-Selectin,"/TH2, 4.12E1 nM",0.069
same,CD62P/P-selectin,"/TH2, 4.12E1 nM",-0.051
same,CD69,"/TH2, 4.12E1 nM",0.028
same,CD87/uPAR,"/TH2, 4.12E1 nM",-0.181
same,CD106/VCAM-1,"/TH2, 4.12E1 nM",0.009
same,CXCL8/IL-8,"/TH2, 4.12E1 nM",-0.049
same,CXCL9/MIG,"/TH2, 4.12E1 nM",-0.018
same,Collagen IV,"/TH2, 4.12E1 nM",-0.002
same,PBMC Cytotoxicity,"/TH2, 4.12E1 nM",-0.057
same,SRB,"/TH2, 4.12E1 nM",-0.051
same,sIL-17A,"/TH2, 4.12E1 nM",0.042
same,sIL-17F,"/TH2, 4.12E1 nM",0.053
same,CCL2/MCP-1,"/TH2, 4.57E0 nM",-0.000419
same,CCL26/Eotaxin-3,"/TH2, 4.57E0 nM",-0.103
same,CD38,"/TH2, 4.57E0 nM",-0.00453
same,CD40,"/TH2, 4.57E0 nM",-0.110
same,CD62E/E-Selectin,"/TH2, 4.57E0 nM",0.029
same,CD62P/P-selectin,"/TH2, 4.57E0 nM",0.013
same,CD69,"/TH2, 4.57E0 nM",0.026
same,CD87/uPAR,"/TH2, 4.57E0 nM",-0.100
same,CD106/VCAM-1,"/TH2, 4.57E0 nM",0.017
same,CXCL8/IL-8,"/TH2, 4.57E0 nM",0.027
same,CXCL9/MIG,"/TH2, 4.57E0 nM",0.021
same,Collagen IV,"/TH2, 4.57E0 nM",0.011
same,PBMC Cytotoxicity,"/TH2, 4.57E0 nM",-0.009
same,SRB,"/TH2, 4.57E0 nM",-0.014
same,sIL-17A,"/TH2, 4.57E0 nM",0.056
same,sIL-17F,"/TH2, 4.57E0 nM",0.044
same,CCL26/Eotaxin-3,"BENo, 1.00E4 nM",0.048
same,CD54/ICAM-1,"BENo, 1.00E4 nM",-0.115
same,CD87/uPAR,"BENo, 1.00E4 nM",-0.014
same,CXCL8/IL-8,"BENo, 1.00E4 nM",-0.033
same,CXCL9/MIG,"BENo, 1.00E4 nM",0.082
same,CXCL10/IP-10,"BENo, 1.00E4 nM",-0.00135
same,CXCL11/I-TAC,"BENo, 1.00E4 nM",-0.038
same,EGFR,"BENo, 1.00E4 nM",0.006
same,HLA-DR,"BENo, 1.00E4 nM",-0.032
same,IL-1alpha,"BENo, 1.00E4 nM",-0.034
same,Keratin 8/18,"BENo, 1.00E4 nM",-0.032
same,MMP-1,"BENo, 1.00E4 nM",0.000562
same,MMP-9,"BENo, 1.00E4 nM",-0.051
same,PAI-I,"BENo, 1.00E4 nM",-0.097
same,SRB,"BENo, 1.00E4 nM",-0.020
same,tPA,"BENo, 1.00E4 nM",-0.115
same,uPA,"BENo, 1.00E4 nM",-0.041
same,CCL26/Eotaxin-3,"BENo, 1.11E3 nM",-0.033
same,CD54/ICAM-1,"BENo, 1.11E3 nM",-0.081
same,CD87/uPAR,"BENo, 1.11E3 nM",-0.049
same,CXCL8/IL-8,"BENo, 1.11E3 nM",-0.031
same,CXCL9/MIG,"BENo, 1.11E3 nM",-0.00357
same,CXCL10/IP-10,"BENo, 1.11E3 nM",-0.058
same,CXCL11/I-TAC,"BENo, 1.11E3 nM",-0.048
same,EGFR,"BENo, 1.11E3 nM",0.007
same,HLA-DR,"BENo, 1.11E3 nM",0.036
same,IL-1alpha,"BENo, 1.11E3 nM",-0.027
same,Keratin 8/18,"BENo, 1.11E3 nM",3.05e-5
same,MMP-1,"BENo, 1.11E3 nM",-0.038
same,MMP-9,"BENo, 1.11E3 nM",-0.005
same,PAI-I,"BENo, 1.11E3 nM",-0.107
same,SRB,"BENo, 1.11E3 nM",0.008
same,tPA,"BENo, 1.11E3 nM",-0.047
same,uPA,"BENo, 1.11E3 nM",-0.007
same,CCL26/Eotaxin-3,"BENo, 1.23E2 nM",-0.013
same,CD54/ICAM-1,"BENo, 1.23E2 nM",-0.092
same,CD87/uPAR,"BENo, 1.23E2 nM",-0.00225
same,CXCL8/IL-8,"BENo, 1.23E2 nM",-0.028
same,CXCL9/MIG,"BENo, 1.23E2 nM",-0.018
same,CXCL10/IP-10,"BENo, 1.23E2 nM",-0.010
same,CXCL11/I-TAC,"BENo, 1.23E2 nM",-0.021
same,EGFR,"BENo, 1.23E2 nM",0.013
same,HLA-DR,"BENo, 1.23E2 nM",0.00213
same,IL-1alpha,"BENo, 1.23E2 nM",0.008
same,Keratin 8/18,"BENo, 1.23E2 nM",-0.021
same,MMP-1,"BENo, 1.23E2 nM",-0.035
same,MMP-9,"BENo, 1.23E2 nM",-0.086
same,PAI-I,"BENo, 1.23E2 nM",-0.061
same,SRB,"BENo, 1.23E2 nM",0.015
same,tPA,"BENo, 1.23E2 nM",-0.029
same,uPA,"BENo, 1.23E2 nM",-0.020
same,CCL26/Eotaxin-3,"BENo, 1.37E1 nM",0.037
same,CD54/ICAM-1,"BENo, 1.37E1 nM",-0.062
same,CD87/uPAR,"BENo, 1.37E1 nM",0.021
same,CXCL8/IL-8,"BENo, 1.37E1 nM",-0.025
same,CXCL9/MIG,"BENo, 1.37E1 nM",-0.110
same,CXCL10/IP-10,"BENo, 1.37E1 nM",-0.013
same,CXCL11/I-TAC,"BENo, 1.37E1 nM",-0.064
same,EGFR,"BENo, 1.37E1 nM",0.011
same,HLA-DR,"BENo, 1.37E1 nM",0.054
same,IL-1alpha,"BENo, 1.37E1 nM",-0.002
same,Keratin 8/18,"BENo, 1.37E1 nM",-0.018
same,MMP-1,"BENo, 1.37E1 nM",-0.037
same,MMP-9,"BENo, 1.37E1 nM",-0.035
same,PAI-I,"BENo, 1.37E1 nM",-0.045
same,SRB,"BENo, 1.37E1 nM",0.023
same,tPA,"BENo, 1.37E1 nM",0.009
same,uPA,"BENo, 1.37E1 nM",-0.014
same,CCL26/Eotaxin-3,"BENo, 3.33E3 nM",-0.026
same,CD54/ICAM-1,"BENo, 3.33E3 nM",-0.069
same,CD87/uPAR,"BENo, 3.33E3 nM",-0.045
same,CXCL8/IL-8,"BENo, 3.33E3 nM",-0.035
same,CXCL9/MIG,"BENo, 3.33E3 nM",-0.00357
same,CXCL10/IP-10,"BENo, 3.33E3 nM",-0.006
same,CXCL11/I-TAC,"BENo, 3.33E3 nM",-0.044
same,EGFR,"BENo, 3.33E3 nM",0.00248
same,HLA-DR,"BENo, 3.33E3 nM",0.016
same,IL-1alpha,"BENo, 3.33E3 nM",-0.032
same,Keratin 8/18,"BENo, 3.33E3 nM",-0.033
same,MMP-1,"BENo, 3.33E3 nM",-0.028
same,MMP-9,"BENo, 3.33E3 nM",-0.009
same,PAI-I,"BENo, 3.33E3 nM",-0.091
same,SRB,"BENo, 3.33E3 nM",-0.011
same,tPA,"BENo, 3.33E3 nM",-0.052
same,uPA,"BENo, 3.33E3 nM",-0.052
same,CCL26/Eotaxin-3,"BENo, 3.70E2 nM",-0.028
same,CD54/ICAM-1,"BENo, 3.70E2 nM",-0.092
same,CD87/uPAR,"BENo, 3.70E2 nM",-0.025
same,CXCL8/IL-8,"BENo, 3.70E2 nM",-0.027
same,CXCL9/MIG,"BENo, 3.70E2 nM",-0.00262
same,CXCL10/IP-10,"BENo, 3.70E2 nM",-0.017
same,CXCL11/I-TAC,"BENo, 3.70E2 nM",-0.036
same,EGFR,"BENo, 3.70E2 nM",-0.014
same,HLA-DR,"BENo, 3.70E2 nM",-0.009
same,IL-1alpha,"BENo, 3.70E2 nM",-0.009
same,Keratin 8/18,"BENo, 3.70E2 nM",-0.013
same,MMP-1,"BENo, 3.70E2 nM",-0.038
same,MMP-9,"BENo, 3.70E2 nM",-0.012
same,PAI-I,"BENo, 3.70E2 nM",-0.072
same,SRB,"BENo, 3.70E2 nM",0.008

# — paper PMC5224920, “Assessing the mechanism and therapeutic potential of modulators of the human Mediator complex-associated protein kinases” (eLife, 2016)
